pIC50: −log10 of the molar value.

For the assay, the target named is T1, MAGL (Homo sapiens, UniProt Q99685).
T1 sequence (Q99685 1-303): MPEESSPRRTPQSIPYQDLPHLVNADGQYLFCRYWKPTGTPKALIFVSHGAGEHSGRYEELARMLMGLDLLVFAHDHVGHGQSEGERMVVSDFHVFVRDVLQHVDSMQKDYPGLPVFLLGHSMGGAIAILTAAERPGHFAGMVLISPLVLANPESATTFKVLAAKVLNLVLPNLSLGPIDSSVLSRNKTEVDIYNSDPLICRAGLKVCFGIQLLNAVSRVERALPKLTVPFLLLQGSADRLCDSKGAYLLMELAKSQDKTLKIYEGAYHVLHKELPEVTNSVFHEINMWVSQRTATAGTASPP
As to the kind of experiment: 2-AG assay (MAGL inhibitory activity, hydrolysis of 2-arachidonoylglycerol followed by mass spectrometry). The assay is classed as biochemical. As to conditions: 15 min preincubation at RT, 8 μM 2-arachidonoylglycerol, 30 min at RT, arachidonic acid by MS. The procedure:
Compounds were profiled for MAGL inhibitory activity by determining the enzymatic activity by following the hydrolysis of the natural substrate 2-arachidonoylglycerol (2-AG) resulting in arachidonic acid, which can be followed by mass spectrometry. This assay is hereinafter abbreviated “2-AG assay”.
The 2-AG assay was carried out in 384 well assay plates (PP, Greiner Cat #784201) in a total volume of 20 μL. Compound dilutions were made in 100% DMSO (VWR Chemicals 23500.297) in a polypropylene plate in 3-fold dilution steps to give a final concentration range in the assay from 12.5 μM to […]. 0.25 μL compound dilutions (100% DMSO) were added to 9 μL MAGL in assay buffer (50 mM TRIS (GIBCO, 15567-027), 1 mM EDTA (Fluka, 03690-100 mL), 0.01% (v/v) Tween. After shaking, the plate was incubated for 15 min at RT. To start the reaction, 10 μL 2-arachidonoylglycerol in assay buffer was added. The final concentrations in the assay was […] and 8 μM 2-arachidonoylglyerol. After shaking and 30 min incubation at RT, the reaction was quenched by the addition of 40 μL of ACN containing 4 μM of d8-arachidonic acid. The amount of arachidonic acid was traced by an online SPE system (Agilent Rapidfire) coupled to a triple quadrupole mass spectrometer (Agilent 6460). A C18 SPE cartridge (G9205A) was used in an ACN/water liquid setup. The mass spectrometer was operated in negative electrospray mode following the mass transitions 303.1→259.1 for arachidonic acid and 311.1→267.0 for d8-arachidonic acid. The activity of the compounds was calculated based on the ratio of intensities [arachidonic acid/d8-arachidonic acid].

The pIC50 is −log10 of the IC50, conventionally taken in molar units. High values mean a small IC50, low ones a large IC50. `O=C1CO[C@H]2CCN(C(=O)N3CC(OCc4cc(Cl)cc(Cl)c4)C3)C[C@H]2N1` [Example 22, (4aR,8aS)-6-(3-((3,5-Dichlorobenzyl)oxy)azetidine-1-carbonyl)hexahydro-2H-pyrido[4,3-b][1,4]oxazin-3(4H)-one] gave a pIC50 of 7.87.
With `O=C1CO[C@H]2CCN(C(=O)N3CC(c4ccc(C5CCOC5)cc4)C3)C[C@H]2N1` (single isomer, unassigned) [Example 2, (4aR,8aS)-6-[3-[4-[(3S or R)-Tetrahydrofuran-3-yl]phenyl]azetidine-1-carbonyl]-4,4a,5,7,8,8a-hexahydropyrido[4,3-b][1,4]oxazin-3-one], the pIC50 was 7.38.
In the case of `CC(C)Oc1ccc(C2CN(C(=O)N3CC[C@@H]4OCC(=O)N[C@@H]4C3)C2)cc1` [Example 4, (4aR,8aS)-6-[3-(4-Isopropoxyphenyl)azetidine-1-carbonyl]-4,4a,5,7,8,8a-hexahydropyrido[4,3-b][1,4]oxazin-3-one] it was 8.15; in that of `O=C1CO[C@H]2CCN(C(=O)N3CCC(OCc4ccc(C(F)(F)F)cc4Cl)CC3)C[C@H]2N1` [Example 26, (4aR,8aS)-6-(4-((2-chloro-4-(trifluoromethyl)benzyl)oxy)piperidine-1-carbonyl)hexahydro-2H-pyrido[4,3-b][1,4]oxazin-3(4H)-one], 8.28; in that of `Cc1ccc(C(F)(F)F)cc1COC1CN(C(=O)N2CC[C@@H]3OCC(=O)N[C@@H]3C2)C1` [Example 34, (4aR,8aS)-6-(3-((2-Methyl-5-(trifluoromethyl)benzyl)oxy)azetidine-1-carbonyl)hexahydro-2H-pyrido[4,3-b][1,4]oxazin-3(4H)-one], 8.10.
Molecule `CC(C)COc1ccc(C2CN(C(=O)N3CC[C@@H]4OCC(=O)N[C@@H]4C3)C2)cc1` [Example 11, (4aR,8aS)-6-(3-(4-Isobutoxyphenyl)azetidine-1-carbonyl)hexahydro-2H-pyrido[4,3-b][1,4]oxazin-3(4H)-one] had a pIC50 of 8.82.
In turn, `Cc1cc(CC2CCN(C(=O)N3CC[C@@H]4OCC(=O)N[C@@H]4C3)CC2)cnc1C(F)(F)F` [Example 37, (4aR,8aS)-6-(4-((5-Methyl-6-(trifluoromethyl)pyridin-3-yl)methyl)piperidine-1-carbonyl)hexahydro-2H-pyrido[4,3-b][1,4]oxazin-3(4H)-one] showed a pIC50 of 7.50.
Regarding `O=C1CO[C@H]2CCN(C(=O)N3CCC(Cc4ccc(C(F)(F)F)cc4C(F)(F)F)CC3)C[C@H]2N1` [Example 36, (4aR,8aS)-6-[4-[[2,4-bis(Trifluoromethyl)phenyl]methyl]piperidine-1-carbonyl]-4,4a,5,7,8,8a-hexahydropyrido[4,3-b][1,4]oxazin-3-one], the pIC50 was 8.03.
In the case of `Cc1c(CC2CCN(C(=O)N3CC[C@@H]4OCC(=O)N[C@@H]4C3)CC2)cncc1C1CC1` [Example 23, (4aR,8aS)-6-(4-((5-Cyclopropyl-4-methylpyridin-3-yl)methyl)piperidine-1-carbonyl)hexahydro-2H-pyrido[4,3-b][1,4]oxazin-3(4H)-one], the pIC50 was 6.92.
With `O=C1CO[C@H]2CCN(C(=O)N3CC(c4cn(-c5ccc(Cl)cc5Cl)cn4)C3)C[C@H]2N1` [Example 8, (4aR,8aS)-6-[3-[1-(2,4-Dichlorophenyl)imidazol-4-yl]azetidine-1-carbonyl]-4,4a,5,7,8,8a-hexahydropyrido[4,3-b][1,4]oxazin-3-one], the pIC50 was 7.41.
For “(4aR,8aS)-6-[rel-(3R,4R)-4-[(2-chloro-4-fluoro-phenoxy)methyl]-3-methyl-piperidine-1-carbonyl]-4,4a,5,7,8,8a-hexahydropyrido[4,3-b][1,4]oxazin-3-one [Example 38]”, the pIC50 is 8.19.

Source of the values: US20210094973A1, “HETEROCYCLIC COMPOUNDS” (Hoffmann-La Roche Inc., priority 2019, published 2021).
